Where two headings read alike, the source gives them in different places.
How the values were obtained:
[1] = Absorption and fluorescence (photophysical properties) in solvent and solid state; format: physicochemical; conditions: for Φ (fluorescence quantum yield): integrating sphere; for Solvatochromism: toluene, diethyl ether, THF, acetone, DMSO
Method: ^1H and ^13C NMR spectra were measured on Bruker ARX 400 NMR spectrometers using CDCl3 as the deuterated solvent. High-resolution mass spectra (HRMS) were recorded on a Finnegan MAT TSQ 7000 Mass Spectrometer System operating in a MALDI-TOF mode. UV absorption spectra were taken on a Milton Ray Spectronic 3000 array spectrophotometer. Steady-state fluorescence spectra were recorded on a Perkin Elmer LS 55 spectrometer. Fluorescence images were collected on Olympus BX 41 fluorescence microscope. Laser confocal scanning microscope images were collected on Zeiss laser scanning confocal microscope (LSM7 DUO) and analyzed using ZEN 2009 software (Carl Zeiss). Two-photon fluorescence imaging was carried out on Olympus FV 300 laser confocal microscope. In two-photon experiments, the excitation wavelengths were 860 nm from a Ti:sapphire femtosecond laser source (coherent chamelon ultra) and the incident power on samples was modified by means of an attenuator and examined with a power monitor (Coherent). A multiphoton emission filter (FF01-750; Semrock) was used to block the IR laser.
The absorption and fluorescence (FL) data of the NAP AIEgens were investigated, and corresponding spectra are shown in FIGS. 5A-5H, 6A-6E, and FIG. 7.
This phenomenon is probably due to the changes in morphology and size of the aggregates formed in the water-THF mixture with high water fractions. […] It should be noted that the FL of NAP AIEgens in high water fraction (fw>90%) increased only several-fold compared with that in THF or CH3CN (FIG. 5G), probably because of formation of loosely packed aggregates. […] The FL spectra of NAP AIEgens were further measured in different polar solvents (FIGS. 6A-6E). […] As for NAP-CF3, the reason for blue-shifted FL in the solid state was likely its twisted structure (FIG. 2E), resulting in only […] π-π interaction rather than J-aggregation (FIG. 2B). […] The FL quantum yields (QYs, Table 1) of NAP AIEgens were measured by using an integrating sphere. […] It should be pointed out that the solid FL QY of NAP-Py^+ was low, likely due to a narrow energy gap and enhanced nonradiative transitions in NIR fluorescent dyes (FIG. 7). Furthermore, longer FL lifetimes of NAP AIEgens in the solid state than those in solvents also verified that restriction of intramolecular motion (RIM) can prohibit energy dissipation via non-radiative channels and enhance the FL of NAP AIEgens (Table 1).

HeLa cells = assay: Photostability under continuous confocal laser irradiation; format: cell-based; conditions: continuous irradiation for 10 min; NAP AIEgens 405 nm, Nile Red 543 nm, power 12%
Method: FIG. 20 is a graph depicting photostability of NAP AIEgens and Nile Red in HeLa cells under continuous irradiation (irradiation conditions: for NAP AIEgens, 405 nm laser, laser power of 12%; for Nile Red, 543 nm laser, laser power of 12%).
Considering the above-mentioned excellent bioimaging characteristics of these NAP AIEgens, further experiments were performed to evaluate their photostability and cytotoxicity. The photostability of NAP AIEgens was evaluated by continuous irradiation with confocal lasers, and data was collected every second. […] Furthermore, standard MTT (3-(4,5-dimethylthiazol-2-yl)-2,5-diphenyl-2H-tetrazolium) assays were performed to evaluate the cytotoxicity of NAP AIEgens in live cells.

LDs in HeLa cells [2] = assay: One-photon LDs imaging at 50 nM; format: cell-based; conditions: 405 nm laser intensity 12%
Method: One-photon imaging experiments in HeLa cells stained with 50 nM of NAP-Ph, NAP-Br, NAP-CF3, and NAP-Py were performed, and Nile Red was used as comparison. […] As far as we know, this is the lowest concentration used for LDs imaging.

LDs in HeLa cells [3] = assay: Co-staining imaging with LDs dye Nile Red (CLSM); format: cell-based; conditions: 100 nM
Method: (§1) To confirm the intracellular location of NAP AIEgens in live cells, co-staining imaging experiments were performed. […] It is believed that positive-charged dyes like NAP-Py^+ can stain mitochondria due to the high negative membrane potential of mitochondria. To determine why other NAP AIEgens without positive charge locate in LDs, additional investigation was conducted.

[4] = Two-photon absorption (TPA) cross section of aggregate suspensions, fluorescein as standard; format: physicochemical; conditions: aggregate suspension in H2O containing 1% CH3CN
Method: With fluorescein as the standard, the TPA cross sections (δ) of NAP AIEgens at different wavelengths were also measured (FIG. 8F). […] To further acquire the TPEF, NAP AIEgens in solid states were directly excited at 800 nm (intensity of about 0.35 mW).

[5] = system: mitochondria in HeLa cells; assay: Co-staining imaging with mitochondria dye MitoTracker Deep Red FM; format: cell-based; conditions: NAP-Py^+ 1 μM, MTDR 100 nM
Method: as §1

[6] = system: LDs in live mice liver tissue; assay: Ex vivo two-photon imaging of live mice liver tissue; conditions: 1 μM, 1 h incubation, λex 860 nm
Method: TP fluorescence imaging outperforms imaging in one-photon mode as a result of high penetration in tissues and low background fluorescence because of near-infrared light excitation and low excitation power. […] After incubation with NAP-CF3 (1 μM) for 1 h, bright spherical spots with TP fluorescence of NAP-CF3 were observed (FIG. 18). For the live mice liver tissue without NAP-CF3, however, only low background fluorescence was obtained. […] To investigate whether NAP-CF3 could show LDs-specific staining in deep live mice liver tissue, TP fluorescence images along the Z-axis were captured. As shown in FIGS. 19A-19F, the fluorescent signal of the spherical spot could be clearly detected at different Z-axis depths even up to 70 μm. […] These excellent TP tissue imaging properties render NAP-CF3 a tremendous tool to visualize LDs-associated biomedical application in live tissues.

[7] = THF or CH3CN (CH3CN for NAP-Py^+)
[8] = THF or CH3CN (CH3CN for NAP-Py^+), listed as NAP-Py^+

| αAIE = Φsolid/Φsolvent [1] | λem max ([1]; Solid) [nm] | τ (fluorescence lifetime) ([1]; Solid) [ns] | Φ (fluorescence quantum yield) ([1]; Solid) | Stokes shift [1, 7] [nm] | λabs max [1, 7] [nm] | λem max [1, 7] [nm] | τ (fluorescence lifetime) [1, 7] [ns] | Φ (fluorescence quantum yield) [1, 7] | Solvatochromism [1] | Fluorescence intensity change under irradiation (HeLa cells) | Structure (SMILES) | LDs staining (LDs in HeLa cells [2]) | Pearson's coefficient with Nile Red (LDs in HeLa cells [3]) | also measured |
| --- | --- | --- | --- | --- | --- | --- | --- | --- | --- | --- | --- | --- | --- | --- |
| 14.47 | 619 | 1.39 | 0.217 | 128 | 413 | 541 | <0.67 | 0.015 | positive solvatochromism | dropped to some extent | COc1c(/C=C(\C#N)c2ccc(-c3ccncc3)cc2)ccc2cc(N(C)C)ccc12 [NAP-Py] | clear fluorescence | 0.88 | Φ (fluorescence quantum yield) ([1]; Solid, listed as NAP-Py^+): 0.048; λem max ([1]; Solid, listed as NAP-Py^+): 676 nm; τ (fluorescence lifetime) ([1]; Solid, listed as NAP-Py^+): 1.32 ns; Φ (fluorescence quantum yield) [1, 8]: 0.008; Stokes shift [1, 8]: 85 nm; λabs max [1, 8]: 455 nm; λem max [1, 8]: 540 nm; τ (fluorescence lifetime) [1, 8]: <0.58 ns; αAIE = Φsolid/Φsolvent ([1]; listed as NAP-Py^+): 6.00; Solvatochromism ([1]; listed as NAP-Py^+): negative solvatochromism; TPA cross section (δ) value [4]: very large; Pearson's coefficient with MitoTracker Deep Red FM [5]: 0.89 |
| 9.00 | 597 | 4.43 | 0.126 | 116 | 409 | 525 | <0.60 | 0.014 | positive solvatochromism | dropped to some extent | COc1c(/C=C(\C#N)c2ccc(Br)cc2)ccc2cc(N(C)C)ccc12 [NAP-Br] | clear fluorescence | 0.83 |  |

Continued, molecule first:

| Structure (SMILES) | αAIE = Φsolid/Φsolvent [1] | λem max ([1]; Solid) [nm] | τ (fluorescence lifetime) ([1]; Solid) [ns] | Φ (fluorescence quantum yield) ([1]; Solid) | Stokes shift [1, 7] [nm] | λabs max [1, 7] [nm] | λem max [1, 7] [nm] | τ (fluorescence lifetime) [1, 7] [ns] | Φ (fluorescence quantum yield) [1, 7] | Solvatochromism [1] | Fluorescence intensity change under irradiation (HeLa cells) | LDs staining (LDs in HeLa cells [2]) | Pearson's coefficient with Nile Red (LDs in HeLa cells [3]) | also measured |
| --- | --- | --- | --- | --- | --- | --- | --- | --- | --- | --- | --- | --- | --- | --- |
| COc1c(/C=C(\C#N)c2ccc(-c3ccccc3)cc2)ccc2cc(N(C)C)ccc12 [NAP-Ph] | 14.89 | 566 | 1.42 | 0.268 | 114 | 409 | 523 | <0.34 | 0.018 | positive solvatochromism | dropped to some extent | clear fluorescence | 0.90 | λem max ([1]; THF/water mixture, water fraction 90%, aggregates): 557 nm |
| COc1c(/C=C(\C#N)c2cc(C(F)(F)F)cc(C(F)(F)F)c2)ccc2cc(N(C)C)ccc12 [NAP-CF3] | 18.25 | 555 | 6.29 | 0.292 | 135 | 425 | 560 | <0.67 | 0.016 | positive solvatochromism |  | clear fluorescence | 0.85 | LDs staining in live mice liver tissue [6]: excellent LDs staining property; Z-axis depth at which fluorescent signal is detected [6]: up to 70 μm |
| CCN(CC)c1ccc2nc3c4ccccc4c(=O)cc-3oc2c1 [Nile Red, reference compound] |  |  |  |  |  |  |  |  |  |  | drastically decreased | non-specific staining in cytoplasm |  |  |

— patent US11220629B2, “Two-photon fluorescent compounds for specific lipid droplet imaging in live cells and deep tissues at ultralow concentration” (THE HONG KONG UNIVERSITY OF SCIENCE AND TECHNOLOGY, priority 2018, dated 2022)
